Assay [1] deals with T1, GST-PDK1_1-556 (Homo sapiens, UniProt O15530).
T1 construct: made in house; host or cells: HEK293 cells (transient transfection of pEBG2T); peptide synthesized by Pepscan
T1 sequence (O15530 1-556): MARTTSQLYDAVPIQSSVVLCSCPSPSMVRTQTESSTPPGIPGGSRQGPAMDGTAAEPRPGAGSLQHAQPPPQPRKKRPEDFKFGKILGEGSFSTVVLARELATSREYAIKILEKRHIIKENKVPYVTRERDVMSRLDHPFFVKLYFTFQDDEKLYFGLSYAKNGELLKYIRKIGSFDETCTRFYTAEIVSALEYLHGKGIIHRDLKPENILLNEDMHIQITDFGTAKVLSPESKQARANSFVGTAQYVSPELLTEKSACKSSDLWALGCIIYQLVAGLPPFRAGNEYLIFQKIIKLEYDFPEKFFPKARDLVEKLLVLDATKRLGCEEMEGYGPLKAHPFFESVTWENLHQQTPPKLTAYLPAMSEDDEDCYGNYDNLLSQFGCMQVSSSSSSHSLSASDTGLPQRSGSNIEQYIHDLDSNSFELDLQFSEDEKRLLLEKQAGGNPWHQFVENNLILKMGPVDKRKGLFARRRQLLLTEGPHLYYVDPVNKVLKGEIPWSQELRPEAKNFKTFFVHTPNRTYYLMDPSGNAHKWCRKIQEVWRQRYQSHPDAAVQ
Nature of the assay: AlphaScreen GST-PDK1_1-556 / biotin-PIFtide interaction. It counts as binding.

Assay [2] addresses T1, GST-PDK1_1-556. Nature of the assay: AlphaScreen biotin-GS-022 / GST-PDK1_1-556 interaction. Format: binding. The text has this: 163 independent experiments. (F-G) Interaction and displacement of interactions using
164 AlphaScreen technlology. (F) Interaction of biotin-GS-022 with GST-PDK11-556 and GST-
165 PDK11-359. N=2 independent experiments. (G) Effect of HYG8 on the interaction between
166 biotin-GS-022 and GST-PDK11-556. N=2 independent experiments.
167 The Thermo Fisher Scientific “PDK1 Direct” assay produced results quite different from those
168 obtained using our PDK1 kinase assay which uses [γ32P]ATP and T308tide
169 ([…]) as substrates. Phosphorylation of T308tide and of the alternative
170 peptides GS-022 ([…]) and GS-023 ([…]-K(5-FAM)) was
171 compared. GS-023 and GS-022 were phosphorylated efficiently by GST-PDK11-556, with over
172 30 and 10-fold higher turnover than T308tide, respectively (fig. S2A). The increased
174 GS-023 peptide provided a degree of improvement of substrate phosphorylation by PDK11-
175 556. GST-PDK11-359, comprising only the catalytic domain but lacking the linker region and the
176 PH domain, phosphorylated the three substrates similarly, with a slight increased turnover
177 towards GS-023 (fig. S2B). Thus, the phosphorylation of GS-23 and GS-022, but not that of
178 T308tide, depended on the construct used (figs. S2C-E). To assess a possible differential […]
180 that measured the interaction of biotin-GS-022 with GST-PDK11-556 and GST-PDK11-359. […]

Turning to `O=C(O[C@H]1[C@@H](OP(=O)(O)O)[C@H](OP(=O)(O)O)[C@@H](OP(=O)(O)O)[C@H](OP(=O)(O)O)[C@H]1OP(=O)(O)O)c1ccccc1` [HYG8, 2-O-benzoyl-IP5], the EC50 at GST-PDK1_1-556 [1] (approximate, read-out: EC50, increase of GST-PDK1_1-556 binding to PIFtide) was about 2.4 nM. Moreover, the “fold increase of binding of GST-PDK1_1-556 to PIFtide” value on GST-PDK1_1-556 [1] (different experiments) is given as 3-4 fold. Moreover, the “effect on interaction between GS-022 and PDK1_1-556” value on GST-PDK1_1-556 [2] is “potently”.

(Values after article PMC7614687, “Modulation of the substrate specificity of the kinase PDK1 by distinct conformations of the full-length protein*” (Science signaling, 2023).)
